According to PubChem BioAssay AID1918940 (Molecular Pharmacology Branch, DTP, NCI, 2023):

Test system: NCI-H211 complex spheroid viability
Assay: Anticancer human tumor NCI-H211 cell line growth inhibition [LSD1];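 note: luminescent viability read after seven days of drug exposure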;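 for viability, T/C: 100% = DMSO vehicle control viability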
Settings: for IC50: curve of first compound; for viability, T/C: stronger effect = lower value
Summary of the method: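 Drug combinations with the LSD1 inhibitor iadademstat tested on tumor cells co-cultured as spheroids with endothelial cells and mesenchymal stem cells. Concentrations descended in half-log increments from clinical Cmax or 10 microM.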

[1] = second compound 0.1 µM, first compound 0.0316 µM
[2] = second compound 0.1 µM, first compound 0.1 µM
[3] = second compound 0.316 µM, first compound 0.0316 µM
[4] = second compound 0.316 µM, first compound 0.1 µM
[5] = second compound 1 µM, first compound 0.0316 µM
[6] = second compound 1 µM, first compound 0.1 µM
[7] = second compound 3.16 µM, first compound 0.0316 µM
[8] = second compound 3.16 µM, first compound 0.1 µM
[9] = second compound 10 µM, first compound 0.0316 µM
[10] = second compound 10 µM, first compound 0.1 µM
[11] = second compound 0.1 µM, first compound 0.000949 µM
[12] = second compound 0.1 µM, first compound 0.003 µM
[13] = second compound 0.1 µM, first compound 0.00949 µM
[14] = second compound 0.1 µM, first compound 0.03 µM
[15] = second compound 0.1 µM, first compound 0.0949 µM
[16] = second compound 0.1 µM, first compound 0.3 µM
[17] = second compound 0.316 µM, first compound 0.000949 µM
[18] = second compound 0.316 µM, first compound 0.003 µM
[19] = second compound 0.316 µM, first compound 0.00949 µM
[20] = second compound 0.316 µM, first compound 0.03 µM
[21] = second compound 0.316 µM, first compound 0.0949 µM
[22] = second compound 0.316 µM, first compound 0.3 µM
[23] = second compound 1 µM, first compound 0.000949 µM
[24] = second compound 1 µM, first compound 0.003 µM
[25] = second compound 1 µM, first compound 0.00949 µM
[26] = second compound 1 µM, first compound 0.03 µM
[27] = second compound 1 µM, first compound 0.0949 µM
[28] = second compound 1 µM, first compound 0.3 µM
[29] = second compound 3.16 µM, first compound 0.000949 µM
[30] = second compound 3.16 µM, first compound 0.003 µM
[31] = second compound 3.16 µM, first compound 0.00949 µM
[32] = second compound 3.16 µM, first compound 0.03 µM
[33] = second compound 3.16 µM, first compound 0.0949 µM
[34] = second compound 3.16 µM, first compound 0.3 µM
[35] = second compound 10 µM, first compound 0.000949 µM
[36] = second compound 10 µM, first compound 0.003 µM
[37] = second compound 10 µM, first compound 0.00949 µM
[38] = second compound 10 µM, first compound 0.03 µM
[39] = second compound 10 µM, first compound 0.0949 µM
[40] = second compound 10 µM, first compound 0.3 µM

Compound: CC[C@@]1(O)C(=O)OCc2c1cc1n(c2=O)Cc2cc3c(CN(C)C)c(O)ccc3nc2-1 + NC1CCC(NC2CC2c2ccccc2)CC1
- IC50 (second compound 0.1 µM): 0.337 nM
- IC50 (second compound 0.316 µM): 0.355 nM
- IC50 (second compound 1 µM): 0.329 nM
- IC50 (second compound 3.16 µM): < 0.316 nM
- IC50 (second compound 10 µM): < 0.316 nM
- viability, T/C (second compound 0.1 µM, first compound 0.000316 µM): 52.3%
- viability, T/C (second compound 0.1 µM, first compound 0.001 µM): 11.6%
- viability, T/C (second compound 0.1 µM, first compound 0.00316 µM): 2.63%
- viability, T/C (second compound 0.1 µM, first compound 0.01 µM): 7.01%
- viability, T/C [1]: 1.98%
- viability, T/C [2]: 1.11%
- viability, T/C (second compound 0.316 µM, first compound 0.000316 µM): 54.4%
- viability, T/C (second compound 0.316 µM, first compound 0.001 µM): 11.1%
- viability, T/C (second compound 0.316 µM, first compound 0.00316 µM): 1.88%
- viability, T/C (second compound 0.316 µM, first compound 0.01 µM): 2.29%
- viability, T/C [3]: 2.33%
- viability, T/C [4]: 1.04%
- viability, T/C (second compound 1 µM, first compound 0.000316 µM): 51.4%
- viability, T/C (second compound 1 µM, first compound 0.001 µM): 10.3%
- viability, T/C (second compound 1 µM, first compound 0.00316 µM): 3.14%
- viability, T/C (second compound 1 µM, first compound 0.01 µM): 2.71%
- viability, T/C [5]: 7%
- viability, T/C [6]: 1.06%
- viability, T/C (second compound 3.16 µM, first compound 0.000316 µM): 49%
- viability, T/C (second compound 3.16 µM, first compound 0.001 µM): 9.4%
- viability, T/C (second compound 3.16 µM, first compound 0.00316 µM): 2.42%
- viability, T/C (second compound 3.16 µM, first compound 0.01 µM): 1.93%
- viability, T/C [7]: 1.88%
- viability, T/C [8]: 1.01%
- viability, T/C (second compound 10 µM, first compound 0.000316 µM): 28.7%
- viability, T/C (second compound 10 µM, first compound 0.001 µM): 6.59%
- viability, T/C (second compound 10 µM, first compound 0.00316 µM): 1.13%
- viability, T/C (second compound 10 µM, first compound 0.01 µM): 1.34%
- viability, T/C [9]: 0.81%
- viability, T/C [10]: 0.51%

Compound: CCc1c2c(nc3ccc(O)cc13)-c1cc3c(c(=O)n1C2)COC(=O)[C@]3(O)CC + NC1CCC(NC2CC2c2ccccc2)CC1
- IC50 (second compound 0.1 µM): < 0.949 nM
- IC50 (second compound 0.316 µM): < 0.949 nM
- IC50 (second compound 1 µM): < 0.949 nM
- IC50 (second compound 3.16 µM): < 0.949 nM
- IC50 (second compound 10 µM): < 0.949 nM
- viability, T/C [11]: 1.98%
- viability, T/C [12]: 3.23%
- viability, T/C [13]: 0.6%
- viability, T/C [14]: 0.92%
- viability, T/C [15]: 0.04%
- viability, T/C [16]: 0.14%
- viability, T/C [17]: 1.86%
- viability, T/C [18]: 0.71%
- viability, T/C [19]: 0.57%
- viability, T/C [20]: 0.69%
- viability, T/C [21]: 0.03%
- viability, T/C [22]: 0.27%
- viability, T/C [23]: 2.45%
- viability, T/C [24]: 1.08%
- viability, T/C [25]: 0.51%
- viability, T/C [26]: 0.73%
- viability, T/C [27]: 0.06%
- viability, T/C [28]: 0.61%
- viability, T/C [29]: 0.94%
- viability, T/C [30]: 0.56%
- viability, T/C [31]: 0.41%
- viability, T/C [32]: 0.58%
- viability, T/C [33]: 0.5%
- viability, T/C [34]: 0.13%
- viability, T/C [35]: 0.65%
- viability, T/C [36]: 0.19%
- viability, T/C [37]: 0.2%
- viability, T/C [38]: 0.27%
- viability, T/C [39]: 0.13%
- viability, T/C [40]: 0.19%

Compound: Nc1ccccc1NC(=O)c1ccc(CNC(=O)OCc2cccnc2)cc1 + NC1CCC(NC2CC2c2ccccc2)CC1
- IC50 (second compound 0.1 µM): 11.9 nM
- IC50 (second compound 0.316 µM): 13.2 nM
- IC50 (second compound 1 µM): 9.95 nM
- IC50 (second compound 3.16 µM): < 9.49 nM
- IC50 (second compound 10 µM): < 9.49 nM
- viability, T/C [13]: 54.5%
- viability, T/C [14]: 32.1%
- viability, T/C [15]: 4.58%
- viability, T/C [16]: 1.24%
- viability, T/C (second compound 0.1 µM, first compound 0.949 µM): 0.63%
- viability, T/C (second compound 0.1 µM, first compound 3 µM): 0.12%
- viability, T/C [19]: 55.7%
- viability, T/C [20]: 35.9%
- viability, T/C [21]: 4.66%
- viability, T/C [22]: 1.07%
- viability, T/C (second compound 0.316 µM, first compound 0.949 µM): 0.8%
- viability, T/C (second compound 0.316 µM, first compound 3 µM): 0.15%
- viability, T/C [25]: 51%
- viability, T/C [26]: 27.2%
- viability, T/C [27]: 3.65%
- viability, T/C [28]: 0.99%
- viability, T/C (second compound 1 µM, first compound 0.949 µM): 0.68%
- viability, T/C (second compound 1 µM, first compound 3 µM): 0.11%
- viability, T/C [31]: 38%
- viability, T/C [32]: 20.3%
- viability, T/C [33]: 3.37%
- viability, T/C [34]: 0.53%
- viability, T/C (second compound 3.16 µM, first compound 0.949 µM): 0.39%
- viability, T/C (second compound 3.16 µM, first compound 3 µM): 0.12%
- viability, T/C [37]: 29.4%
- viability, T/C [38]: 6.92%
- viability, T/C [39]: 1%
- viability, T/C [40]: 0.3%
- viability, T/C (second compound 10 µM, first compound 0.949 µM): 0.22%
- viability, T/C (second compound 10 µM, first compound 3 µM): 5.88%

Compound: Nc1ccn(C2OC(CO)C(O)C2(F)F)c(=O)n1 (stereo not given) + NC1CCC(NC2CC2c2ccccc2)CC1
- IC50 (second compound 0.1 µM): < 0.949 nM
- IC50 (second compound 0.316 µM): < 0.949 nM
- IC50 (second compound 1 µM): < 0.949 nM
- IC50 (second compound 3.16 µM): < 0.949 nM
- IC50 (second compound 10 µM): < 0.949 nM
- viability, T/C [11]: 2.51%
- viability, T/C [12]: 2.16%
- viability, T/C [13]: 2.36%
- viability, T/C [14]: 1.86%
- viability, T/C [15]: 2.26%
- viability, T/C [16]: 2.41%
- viability, T/C [17]: 2.59%
- viability, T/C [18]: 2.18%
- viability, T/C [19]: 2.35%
- viability, T/C [20]: 2.12%
- viability, T/C [21]: 2.8%
- viability, T/C [22]: 2.37%
- viability, T/C [23]: 2.5%
- viability, T/C [24]: 1.98%
- viability, T/C [25]: 2.28%
- viability, T/C [26]: 2.01%
- viability, T/C [27]: 2.14%
- viability, T/C [28]: 2.46%
- viability, T/C [29]: 2.06%
- viability, T/C [30]: 3.05%
- viability, T/C [31]: 2.05%
- viability, T/C [32]: 1.95%
- viability, T/C [33]: 2.15%
- viability, T/C [34]: 2.13%
- viability, T/C [35]: 1.03%
- viability, T/C [36]: 0.96%
- viability, T/C [37]: 1.05%
- viability, T/C [38]: 0.79%
- viability, T/C [39]: 0.64%
- viability, T/C [40]: 1.61%

Compound: O=C(c1cc(Cc2n[nH]c(=O)c3ccccc23)ccc1F)N1CCN(C(=O)C2CC2)CC1 + NC1CCC(NC2CC2c2ccccc2)CC1
- IC50 (second compound 0.1 µM): < 31.6 nM
- IC50 (second compound 0.316 µM): < 31.6 nM
- IC50 (second compound 1 µM): < 31.6 nM
- IC50 (second compound 3.16 µM): < 31.6 nM
- IC50 (second compound 10 µM): < 31.6 nM
- viability, T/C [1]: 41.8%
- viability, T/C [2]: 26.4%
- viability, T/C (second compound 0.1 µM, first compound 0.316 µM): 6.09%
- viability, T/C (second compound 0.1 µM, first compound 1 µM): 2.71%
- viability, T/C (second compound 0.1 µM, first compound 3.16 µM): 2.42%
- viability, T/C (second compound 0.1 µM, first compound 10 µM): 2.07%
- viability, T/C [3]: 44.4%
- viability, T/C [4]: 27.7%
- viability, T/C (second compound 0.316 µM, first compound 0.316 µM): 6.03%
- viability, T/C (second compound 0.316 µM, first compound 1 µM): 2.23%
- viability, T/C (second compound 0.316 µM, first compound 3.16 µM): 2.6%
- viability, T/C (second compound 0.316 µM, first compound 10 µM): 2.2%
- viability, T/C [5]: 41.1%
- viability, T/C [6]: 27.1%
- viability, T/C (second compound 1 µM, first compound 0.316 µM): 5.68%
- viability, T/C (second compound 1 µM, first compound 1 µM): 2.69%
- viability, T/C (second compound 1 µM, first compound 3.16 µM): 3.18%
- viability, T/C (second compound 1 µM, first compound 10 µM): 2.72%
- viability, T/C [7]: 35.5%
- viability, T/C [8]: 21.8%
- viability, T/C (second compound 3.16 µM, first compound 0.316 µM): 4.95%
- viability, T/C (second compound 3.16 µM, first compound 1 µM): 1.97%
- viability, T/C (second compound 3.16 µM, first compound 3.16 µM): 2.43%
- viability, T/C (second compound 3.16 µM, first compound 10 µM): 2.46%
- viability, T/C [9]: 18.2%
- viability, T/C [10]: 11.2%
- viability, T/C (second compound 10 µM, first compound 0.316 µM): 1.78%
- viability, T/C (second compound 10 µM, first compound 1 µM): 1.3%
- viability, T/C (second compound 10 µM, first compound 3.16 µM): 1.25%
- viability, T/C (second compound 10 µM, first compound 10 µM): 1.37%
